Converted amounts (≈) assume the structure as drawn.
What was measured:
Assay in all cases: Antibacterial activities, MIC
Type in all cases: cell-based
[1] = system: Pseudomonas aeruginosa EP-01; conditions: EP01
Escherichia coli NIHJ = system: Escherichia coli NIHJ
[2] = system: Serratia marcescens ES-75; conditions: ES75
Morganella morgani EP-14 = conditions: EP14
[3] = system: Staphylococcus aureus 209-P
[4] = system: Klebsiella pneumoniae EK-6; conditions: EK6

| SMILES | MIC [1] [µg/mL] | MIC (Escherichia coli NIHJ) [µg/mL] | MIC [2] [µg/mL] | MIC (Morganella morgani EP-14) [µg/mL] | MIC [3] [µg/mL] | MIC [4] [µg/mL] |
| --- | --- | --- | --- | --- | --- | --- |
| C[N+](C)(C/C=C/C1=C(C(=O)[O-])N2C(=O)[C@@H](NC(=O)/C(=N\OCF)c3nsc(N)n3)[C@H]2SC1)[C@H](CO)C(N)=O [Example 10, 7β-[2-(5-Amino-1,2,4-Thiadiazol-3-yl)-(Z)-2-fluoromethoxyiminoacetamido]-3-[(E)-3-[((R)-1-Carbamoyl-2-Hydroxyethyl)Dimethylammonio]-1-propenyl]-3-Cephem-4-Carboxylate] | 0.8 (≈ 1.4 µM) | ≤ 0.025 | ≤ 0.025 | ≤ 0.025 | 0.2 (≈ 0.349 µM) | ≤ 0.025 |
| CC[N+](C)(C/C=C/C1=C(C(=O)[O-])N2C(=O)[C@@H](NC(=O)/C(=N\OCF)c3nsc(N)n3)[C@H]2SC1)CC(N)=O (stereo partly drawn) [Example 14, 7β-[2-(5-Amino-1,2,4-Thiadiazol-3-yl)-(Z)-2-Fluoromethoxyiminoacetamido]-3-[(E)-3-(Carbamoylmethylethylmethylammonio)-1-Propenyl]-3-Cephem-4-Carboxylate] | 0.8 (≈ 1.44 µM) | ≤ 0.025 | 0.1 (≈ 0.18 µM) | ≤ 0.025 | 0.2 (≈ 0.359 µM) | ≤ 0.025 |
| C[C@H](C(N)=O)[N+](C)(C)C/C=C/C1=C(C(=O)[O-])N2C(=O)[C@@H](NC(=O)/C(=N\OCF)c3nsc(N)n3)[C@H]2SC1 [Example 18, 7β-[2-(5-Amino-1,2,4-Thiadiazol-3-yl)-(Z)-2-Fluoromethyoxyiminoacetamido]-3-[(E)-3-[((R)-1Carbamoylethyl)dimethylammonio]-1-propenyl]-3-Cephem-4-Carboxylate] | 1.56 (≈ 2.8 µM) | ≤ 0.025 | 0.1 (≈ 0.18 µM) | ≤ 0.025 | 0.2 (≈ 0.359 µM) | ≤ 0.025 |
